≈ marks a conversion by molar mass, not a printed value. Where two headings read alike, the source gives them in different places.
How the values were obtained:
[1] = tested on: Stenotrophomonas maltophilia; assay: E-test, sputum isolates of children with cystic fibrosis; type: cell-based; details: 2000–2004
S. maltophilia = assay: Susceptibility of respiratory isolates of cancer patients; type: cell-based, Stenotrophomonas maltophilia; details: 40 patients
Acinetobacter = assay: Disk diffusion; type: cell-based; details: 37 isolates selected as resistant to beta-lactams
Haemophilus influenzae = assay: Susceptibility testing; type: cell-based; details: conjunctival isolates 2000–2004
Staphylococcus aureus = assay: Susceptibility testing; type: cell-based; details: conjunctival isolates 2000–2004
[2] = tested on: Staphylococcus coagulase negative (CNS); assay: Susceptibility testing; type: cell-based; details: conjunctival isolates 2000–2004
Escherichia coli = assay: Vitek 2 susceptibility, urine isolates of children; type: cell-based
Salmonella spp. = assay: Agar dilution susceptibility, gastroenteritis isolates Cuba; type: cell-based; details: 34 strains, 2002
[3] = tested on: Pseudomonas putida clinical isolates; assay: Agar dilution MIC; type: cell-based
C. jejuni ATCC 33560 = assay: VetMIC broth microdilution, QC strain; type: cell-based; details: Campylobacter jejuni, ATCC33560, read-out: QC limits (MIC)
Escherichia coli O157:H7 = assay: Kirby-Bauer susceptibility; type: cell-based; details: 30 strains, 1990–2003
[4] = tested on: Salmonella serotype Enteritidis; assay: Disk diffusion, food isolates Spain; type: cell-based; details: n = 96
[5] = tested on: Salmonella serotype Typhimurium; assay: Disk diffusion, food isolates Spain; type: cell-based; details: n = 53
[6] = tested on: Salmonella, other 49 serotypes; assay: Disk diffusion, food isolates Spain; type: cell-based; details: n = 115
Shigella spp. = assay: Disk diffusion, stool isolates Tehran; type: cell-based; details: 96 isolates
H. influenzae [7] = type: cell-based, Haemophilus influenzae
enterococci = assay: Disk diffusion and E-test, faecal isolates of cancer patients; type: cell-based, Enterococcus; details: 38 strains
H.influenzae [8] = assay: Broth microdilution; type: cell-based, Haemophilus influenzae
S. pneumoniae [9] = assay: Broth microdilution; type: cell-based, Streptococcus pneumoniae
PRSP = assay: Broth microdilution; type: cell-based, Streptococcus pneumoniae
ERSP = assay: Broth microdilution; type: cell-based, Streptococcus pneumoniae; details: Streptococcus pneumoniae
H. influenzae [10] = assay: Disk diffusion; type: cell-based, Haemophilus influenzae; details: 237 isolates
Moraxella spp. = assay: Disk diffusion; type: cell-based; details: 35 isolates
H.influenzae [11] = assay: PROTEKT Italy, NCCLS microdilution; type: cell-based, Haemophilus influenzae
M. catarrhalis = assay: PROTEKT Italy, NCCLS microdilution; type: cell-based, Moraxella catarrhalis
E. faecalis [12] = assay: Italian survey of severe infections 2003, MIC; type: cell-based, Enterococcus faecalis
H. influenzae [13] = assay: MIC of invasive strains, Saint George Hospital 2001–2004; type: cell-based, Haemophilus influenzae; details: n = 129
H. influenzae [14] = assay: Disk diffusion, sputum isolates Athens 2001–2004; type: cell-based, Haemophilus influenzae
H. influenzae [15] = assay: Broth microdilution; type: cell-based, Haemophilus influenzae; details: 267 isolates
E. faecalis [16] = assay: E-test susceptibility; type: cell-based, Enterococcus faecalis
[17] = tested on: intestinal Escherichia coli; assay: ampicillin resistance of intestinal isolates during treatment; set-up: species or system beagles; details: dog, in vivo
E. coli = assay: Disk diffusion, urine isolates of BPH patients; details: strains isolated after operative intervention
[18] = tested on: glycopeptide intermediate Staphylococcus species (GISS); assay: VITEK II, screening plate and E test, blood isolates; type: cell-based, coagulase-negative Staphylococci; details: for MIC: Staphylococcus
S. aureus [19] = assay: E-test susceptibility; type: cell-based, Staphylococcus aureus
S. aureus [20] = assay: susceptibility of bloodstream isolates; type: cell-based
[21] = tested on: foreign body infection Staphylococcus epidermidis strains; assay: NCCLS disk diffusion; type: cell-based; details: 86 strains
[22] = tested on: viridans group streptococci (VGS); assay: MIC; type: cell-based
S. pneumoniae [23] = type: cell-based, Streptococcus pneumoniae
[24] = tested on: Staphylococci epidermidis; assay: E-test, classical method and macromethod; type: cell-based, Staphylococcus epidermidis; details: four strains: 8, 8, 12, 12; BHI agar, 2.0 McFarland, 48 h
[25] = tested on: Staphylococcus haemolyticus; assay: E-test, classical method and macromethod; type: cell-based
MRSA [26] = assay: Disk diffusion; type: cell-based, Staphylococcus aureus; details: 200 isolates
MSSA = assay: Agar dilution MIC; type: cell-based, Staphylococcus aureus
MRSA [27] = assay: Agar dilution MIC; type: cell-based, Staphylococcus aureus
[28] = tested on: viridans group streptococci (VgS) and Streptococcus bovis; assay: Broth microdilution and disk diffusion; type: cell-based; details: nine species
CA-MRSA = assay: MIC, MBC; type: cell-based, Staphylococcus aureus; details: time kill, two strains
MDR-MRSA = assay: MIC, MBC; type: cell-based, Staphylococcus aureus; details: time kill, two strains
E. faecium = assay: E-test susceptibility; type: cell-based, Enterococcus faecium
S. aureus 10 = assay: in vitro dynamic model, enrichment of resistant mutants; type: cell-based
[29] = tested on: agr+ group II S. aureus (RN6607); assay: in vitro pharmacodynamic model, MIC by E-test and microdilution; type: cell-based; details: Staphylococcus aureus, 72 h, read-out: post-exposure MIC
[30] = tested on: agr− group II S. aureus (RN9120); assay: as above; type: cell-based; details: Staphylococcus aureus, read-out: post-exposure MIC
[31] = Mediterranean spotted fever, randomised therapeutic study; type: in vivo, human
[32] = tested on: C. pneumoniae target genes (LcrD, YscL, YscN, IncA, IncC, TyrB, GlyA); assay: Chlamydial gene expression; type: cell-based, Chlamydia pneumoniae; details: moxifloxacin 3.1 μg/ml, clarithromycin 2 μg/ml; peaking at 120 h
H. influenzae (HI) = assay: SENTRY Brazil, NCCLS broth microdilution; type: cell-based, Haemophilus influenzae
Nocardia spp. = assay: E-test on Mueller Hinton agar, 81 clinical isolates; type: cell-based; details: Nocardia
[33] = tested on: Streptococcus pneumoniae (SPN); assay: MIC; type: cell-based; details: 8378 isolates
[34] = tested on: Moraxella catarrhalis (MC); assay: MIC; type: cell-based; details: 2497 isolates
[35] = tested on: Streptococcus pyogenes (SPY); assay: MIC; type: cell-based; details: 2522 isolates
[36] = NCCLS breakpoints (Amox/Clav 2/1 mcg/mL)

## ticarcillin/clavulanic acid
[1]
  sensitivity: 59.3%
S. maltophilia
  Susceptible isolates: 65%
Acinetobacter
  resistant isolates: 32.4%

## CC1(C)S[C@@H]2[C@H](NC(=O)[C@H](N)c3ccccc3)C(=O)N2[C@H]1C(=O)O [ampicillin]
Haemophilus influenzae
  resistant isolates: 9.5%
Staphylococcus aureus
  resistant isolates: 66.6%
[2]
  resistant isolates: 79.5%
Escherichia coli; paediatric surgical unit (PSU)
  susceptibility rate: 15%
Escherichia coli; paediatric units (PU)
  susceptibility rate: 54%
Salmonella spp.
  resistance: 44%
[3]
  MIC: > 128 µg/mL
C. jejuni ATCC 33560
  MIC: 2 to 8 µg/mL (≈ 5.72 to 22.9 µM)
Escherichia coli O157:H7
  resistant strains: 13.3%
[4]
  resistance rate (NCCLS M100-S13): 8%
[5]
  resistance rate (NCCLS M100-S13): 62%
[6]
  resistance rate (NCCLS M100-S13): 14%
Shigella spp.
  resistance: 100%
H. influenzae [7]
  resistant: 4.7%
enterococci; gentamycin: high level
  resistant strains: 50%
H.influenzae [8]; Haemophilus influenzae
  MIC90: > 16 µg/mL
H.influenzae [8]; NCCLS
  %Sus: 74.6%
S. pneumoniae [9]; [36]
  %Sus: 0.0%
S. pneumoniae [9]; Streptococcus pneumoniae
  MIC90: 4 µg/mL (≈ 11.4 µM)
PRSP; [36]
  %Sus: 0.0%
PRSP; Streptococcus pneumoniae, PRSP
  MIC90: 8 µg/mL (≈ 22.9 µM)
ERSP
  MIC90: 8 µg/mL (≈ 22.9 µM)
H. influenzae [10]
  Susceptible isolates: 92%
Moraxella spp.
  Susceptible isolates: 49%
  resistant isolates: 51%
H.influenzae [11]; year 1
  resistance: 26.5%
H.influenzae [11]; year 2
  resistance: 20.6%
M. catarrhalis; year 1
  susceptibility rate: 22.7%
M. catarrhalis; year 2
  susceptibility rate: 18.9%
E. faecalis [12]
  resistance: 0.4%
H. influenzae [13]
  resistant isolates: 60%
H. influenzae [14]; 2001–2002
  resistance rate: 10.9%
H. influenzae [14]; 2003–2004
  resistance rate: 23.1%
H. influenzae [15]
  resistant: 5.2%
E. faecalis [16]; ICU, SRGA breakpoints, tigecycline tentative ≤2 μg/ml
  Susceptibility: 99/99%
E. faecalis [16]; non-ICU
  Susceptibility: 99/99%
[17]
  proportion of ampicillin-resistant isolates during treatment: 98%
E. coli
  resistance: 93.1%

## Cc1onc(-c2ccccc2)c1C(=O)N[C@@H]1C(=O)N2[C@@H]1SC(C)(C)[C@@H]2C(=O)O [oxacillin]
[18]; six out of 73
  sensitive strains: 8,2%
S. aureus [19]; ICU, SRGA breakpoints, tigecycline tentative S ≤2 μg/ml
  Susceptibility: 97%
S. aureus [19]; non-ICU
  Susceptibility: 98%
S. aureus [19]; total
  % isolates resistant: 2%
S. aureus [20]
  resistance: 43%
[21]
  % resistant: More than 30%

## CN[C@H](CC(C)C)C(=O)N[C@H]1C(=O)N[C@@H](CC(N)=O)C(=O)N[C@H]2C(=O)N[C@H]3C(=O)N[C@H](C(=O)N[C@H](C(=O)O)c4cc(O)cc(O)c4-c4cc3ccc4O)[C@H](O)c3ccc(c(Cl)c3)Oc3cc2cc(c3O[C@@H]2O[C@H](CO)[C@@H](O)[C@H](O)[C@H]2O[C@H]2C[C@](C)(N)[C@H](O)[C@H](C)O2)Oc2ccc(cc2Cl)[C@H]1O [vancomycin]
[22]
  MIC50: 0.5 µg/mL (≈ 0.345 µM)
  MIC90: 1 µg/mL (≈ 0.69 µM)
[22]; 83 isolates, tolerance to VA and TP
  tolerant isolates: 77.6%
[22]; NCCLS
  susceptibility of all isolates: All isolates were susceptible
S. pneumoniae [23]
  resistant: 0%
enterococci
  sensitivity of all isolated strains: All the isolated strains were sensitive
[18]; read-out: MIC of intermediate sensitive strains
  MIC: 8 to 12 µg/mL
[18]; read-out: MIC of resistant strain
  MIC: 32 µg/mL
[24]
  MIC, macromethod of E-test: 12 µg/mL
[25]; read-out: MIC, classical E-test
  MIC: 3 µg/mL (≈ 2.07 µM)
[25]; read-out: MIC, macromethod of E-test
  MIC: 32 µg/mL (≈ 22.1 µM)
MRSA [26]
  sensitivity: All isolates were sensitive
MSSA; Staphylococcus aureus, MSSA
  MIC50: < 0.5 µg/mL
  MIC90: < 1 µg/mL
MSSA; n = 200
  MIC range: 0.5 to 1 µg/mL (≈ 0.345 to 0.69 µM)
MRSA [27]; Staphylococcus aureus, MRSA
  MIC50: < 1 µg/mL
  MIC90: < 1 µg/mL
MRSA [27]; n = 50
  MIC range: 1 µg/mL (≈ 0.69 µM)
[28]
  % S, range between species: 100.0%
CA-MRSA
  Δ Log10 CFU/ml: −3.78 Log10 CFU/ml
MDR-MRSA
  Δ Log10 CFU/ml: −3.97 Log10 CFU/ml
E. faecium; ICU
  Susceptibility: 93%
E. faecium; non-ICU
  Susceptibility: 98%
E. faecium; total
  % isolates resistant (VRE): 4%
S. aureus 10
  AUC/MIC predicted to protect from selection of resistant mutants: 256 h
S. aureus 10; five-day treatment
  AUC/MIC at which resistant mutants were selected: 32 to 128 h
[29]
  MIC: ≤ 2 µg/mL
[30]
  MIC: 6 µg/mL (≈ 4.14 µM)

## CC[C@H]1OC(=O)[C@H](C)[C@@H](O[C@H]2C[C@@](C)(OC)[C@@H](O)[C@H](C)O2)[C@H](C)[C@@H](O[C@@H]2O[C@H](C)C[C@H](N(C)C)[C@H]2O)[C@](C)(OC)C[C@@H](C)C(=O)[C@H](C)[C@@H](O)[C@]1(C)O [clarithromycin]
[31]; either group
  adverse reactions or relapses: no adverse reactions
[31]; group A n=14, group B n=20
  time for disappearance of the fever after treatment: 2.57 ± 1.7 days
  time to disappearance of symptoms: 4.35 ± 2.5 days
[32]
  upregulation of mRNA of all target genes: less prominent
H. influenzae (HI); 1998
  % S: 90%
H. influenzae (HI); 1999
  % S: 100%
H. influenzae (HI); 2000
  % S: 92%
H. influenzae (HI); 2001
  % S: 91%
H. influenzae (HI); 2002
  % S: 90%
H. influenzae (HI); 2003
  % S: 94%
Nocardia spp.
  MIC50: 8 µg/mL (≈ 10.7 µM)
  MIC90: 96 µg/mL (≈ 128 µM)
[33]
  MIC90: 0.5 ig/ml
[34]
  MIC90: 0.5 ig/ml
[35]
  MIC90: 0.12 ig/ml
H.influenzae [11]; year 1
  resistance: 36.9%
H.influenzae [11]; year 2
  resistance: 25.7%

— paper PMC7129073 (Clinical Microbiology and Infection, 2015)
